{"source": "paper PMC13252604", "about": "“First Generation Proteolysis Targeting Chimeras (PROTACs) for the Treatment of Progeria” (Advanced Science, 2026)", "key": {"[1]": {"experiment": "Stability in mouse serum", "assay_type": "in vitro ADME", "source_text": "TABLE 1 Pharmacokinetic parameters of PROTAC 2. | column: Stability (hours) ^b / m‐serum"}, "[2]": {"tested_on": "overall protein abundance", "experiment": "Global proteomic analysis", "assay_type": "cell-based", "settings": "5 µM compound vs vehicle, three independent samples each", "source_text": "(A) Input IP .LM123L T-!=> V,!=>\nMW Veh Cpd 2 Cpd 2 Veh !!!!!\"#$$#B -45665 T4--8 -4;?,;\nProgerin !!!!!E#)*+,- ,V4:-Ise::::: :etpoooomX,?4?V:enst9mmqo,848; !?#$B?CDEFCBG+I-+G.BLG+ […]\n!!!!!*+,- 84;66L<-,VI9e::::::esnnsmqmXV4-;VL<-,?:estm9XpoX?4T-?L<-,8 FFFFF0BNNB$ :em9Xn […]\nIgG heavy chain Iqep:m:p ne:qmppo:m :esmpqtmpn FFFFFSB#T89:I9em:m […]\n50- Iqe9mt:: :eoX9ppnnm :eoqpq9s9p X9YF8=F>.-B2?E+FE??+E?@BBCA\nFFFFF0BNNB$ rrrFNBF:eqoqs\nCpd 2 Veh FFFFFSB#T89:rrr […]\nVehicle .LM123L T-!=>(%C\" V,!=> […]\n50- !!!!!C#' -4TT8VLamin C -4T:T; (%$$-4-:?5T '()*+\n!!!!!E#)*+,- ,V4:-β-Actin ,?4?V ,848; D(%\n37- !!!!!*+,- 84;66L<-,V V4-;VL<-,? ?4T-?L<-,8 ,-)*+ […]\nAbundance Ratio (log2): Ve h / Cpd 2\nSupporting Figure S2. Ternary complex formation, progerin engagement and global selectivity of compound 2. (A) Progeroid […]/G609G fibroblasts treated with vehicle (0.1% DMSO) or compound 2 (5 µM) were subjected to immunoprecipitation with an anti-CRBN antibody and then immunoblotted with an anti-progerin antibody. Bar graph represents mean±sem of 2 independent experiments. (B) Representative progerin immunoblotting of the soluble fraction of LmnaG609G/G609G cell homogenates treated with […]\nindicated temperature. (C) Thermal denaturation curves of progerin in the presence of vehicle (black) or compound 2 at 10 µM (red, DTm=0.7±0.1 °C) or 25 µM (blue, […]\nof compound 2 (IC50=7±1 µM). […]"}}}
{"compound": "CC1(C)Oc2cc3oc(=O)ccc3cc2C[C@@H]1OC(=O)CCCCCNc1cccc2c1C(=O)N(C1CCC(=O)NC1=O)C2=O", "note": "(some centres unmarked) [compound 2]", "values": [{"measurement": "Stability (hours) m‐serum", "setting": "[1]", "result": "0.28 ± 0.02", "unit": "h"}, {"measurement": "alterations in overall protein abundance (global proteomics)", "setting": "[2]", "result": "did not identify significant alterations in overall protein abundance"}]}
